Measured values: BigSolDB 2.1

O=C(O)CNC(=O)C(=O)NCC(=O)O
solubility (mole fraction)
Details | 293.15 K | 298.15 K | 303.15 K | 308.15 K | 313.15 K | 318.15 K | 323.15 K | 328.15 K | 333.15 K
in DMF | 0.0292 | 0.0401 | 0.0519 | 0.0629 | 0.0732 | 0.082 | 0.0879 | 0.0909 | 0.0923
in DMSO | 0.0675 | 0.0736 | 0.0807 | 0.0879 | 0.0963 | 0.105 | 0.114 | 0.124 | 0.136
in THF | 3.5e-06 | 1.41e-05 | 4.17e-05 | 9.96e-05 | 0.000203 | 0.000354 | 0.000527 | 0.000715 | 0.000892
in acetonitrile | 1.6e-06 | 3.2e-06 | 5.6e-06 | 9.2e-06 | 1.41e-05 | 2.01e-05 | 2.73e-05 | 3.62e-05 | 4.71e-05
in ethanol | 2.08e-05 | 3.75e-05 | 6.27e-05 | 0.000104 | 0.000155 | 0.000216 | 0.00029 | 0.000382 | 0.0005
in ethyl acetate | 4.3e-06 | 6e-06 | 7.8e-06 | 1.04e-05 | 1.38e-05 | 1.81e-05 | 2.24e-05 | 2.76e-05 | 3.37e-05
in isopropanol | 7.7e-06 | 1.47e-05 | 2.59e-05 | 4.71e-05 | 7.77e-05 | 0.000118 | 0.000174 | 0.000246 | 0.000355
in methanol | 0.000159 | 0.000222 | 0.000303 | 0.000409 | 0.000527 | 0.000663 | 0.000816 | 0.000997 | 0.00121
in n-butanol | 2.9e-06 | 5.3e-06 | 1e-05 | 1.77e-05 | 3.06e-05 | 5.12e-05 | 7.95e-05 | 0.00012 | 0.00019
in n-propanol | 5.9e-06 | 8.2e-06 | 1.3e-05 | 2.06e-05 | 3.41e-05 | 5.83e-05 | 0.000104 | 0.000198 | 0.000355
in water | 0.000127 | 0.000183 | 0.000267 | 0.000362 | 0.00048 | 0.000634 | 0.000816 | 0.00105 | 0.00136
